Experimental data published in US20260243776A1, “A METHOD FOR DETECTING PROTEIN TARGETS OF AN ENZYME USING A BIOTIN LIGASE” (Leibniz-Institut für Alternsforschung - …, priority 2022, published 2026).
Residues, ends and D or L forms follow the SMILES beside them. *: point of attachment. Cbz = O=C(OCc1ccccc1)*

Tests used:
proteasome = assay: Proximity labeling (BioID) with PSMA4-miniTurbo, streptavidin enrichment and DIA mass spectrometry, with proteasome inhibition; format: cell-based, Homo sapiens
Procedure: For the “BioID” experiments, HEK293T lines were seeded at the density of approximately 1.6×10^4 cells/cm2 and incubated for 24 hours to allow cell attachment to the culture dish. The expression of BirA* or miniTurbo fusion proteins were induced by a single addition of tetracycline stock (solved in ethanol) exposing the cells to its final concentration of […] in total for 4 days. 2 hours (miniTurbo lines) or 24 hours (BirA* lines) prior to cell harvesting, 50 μM biotin was added to the culture media. For identification of proteasome substrates, PSMA4-miniTurbo or miniTurbo expressing cells were treated with 20 μM MG132 for 4 hours and/or 10 μM KB02-JQ1 for 12 hours. Upon treatment, cells were washed 3×times with PBS and harvested by trypsinization. For each sample, a pellet corresponding to 20 million cells was collected and snap-frozen in liquid nitrogen.
Cell pellets were thawed on ice were resuspended in 4.75 ml of BioID lysis buffer (50 mM Tris pH 7.5; 150 mM NaCl; 1 mM EDTA; 1 mM EGTA; 1% (v/v) Triton X-100; 1 mg/ml aprotinin; 0.5 mg/ml leupeptin; 250 U turbonuclease; 0.1% (w/v) SDS), followed by 1 hour incubation in the rotator mixer (STARLAB RM Multi-1) (15×rpm) at 4° C. to aid the lysis. Samples were then briefly sonicated in a Bioruptor Plus for 5 cycles (30 s ON/30 s OFF) at high setting and afterwards centrifuged at 20817×g, for 30 minutes at 4° C. to remove any debris.
Streptavidin coated Sepharose beads were acetylated by two successive treatments with 10 mM Sulfo-NHS-Acetate for 30 minutes at room temperature. The reaction was then quenched with 1 M Tris pH 7.5 (1:10 v/v) and then the beads were washed with 1×PBS and centrifuged at 2000×g for 1 minute at room temperature. This washing was performed 3 times in total. Cleared lysates were transferred to new tubes, 50 μl of acetylated beads added, and samples were incubated for 3 hours on the rotator (15×rpm) at 4° C. This was followed by centrifugation at 2000×g for 5 minutes at 4° C. and removal of 4.5 ml of the supernatant from each sample. […]

[1] = system: proteasome chymotrypsin-like activity; assay: Proteasome activity assay (LLVY-AMC cleavage) on cell lysates; format: cell-based, Homo sapiens; conditions: lysates of HEK293T lines expressing BirA* fusion proteins or BirA* control; 24 hours with vs without tetracycline
Procedure: Proteasome activity assay: The proteasome activity assay (PAA) was performed using the 20S proteasome activity assay kit (Millipore, APT280) following the manufacturer instructions. In short, cell pellets were thawed in ice-cold lysis buffer (50 mM HEPES pH 7.5; 5 mM EDTA; 150 mM NaCl; 1% (v/v) Triton X-100; 2 mM ATP) and left on ice for 30 minutes with short vortex steps (VWR international, VWR/444-1372) every 10 minutes. Samples were centrifuged at 20817×g, for 15 minutes at 4° C. to remove any debris. For protein amount estimation the EZQ Protein Quantitation Kit (Invitrogen, R33200) was used. 50 μg of protein extract were incubated with fluorophore-linked peptide substrate (LLVY-7-amino-4-methylcoumarin, AMC) for 60 minutes at 37° C. Proteasome activity was measured by quantification of fluorescent units from cleaved AMC at 380/460 nm using a microplate reader m1000 (Tecan).

| SMILES | impact on the biotinylated proteins quantified by mass spectrometry (principal component analysis) (proteasome; HEK293T PSMA4-miniTurbo, 20 μM MG132 4 hours) | number of proteins enriched relative to miniTurbo control only in presence of MG132 (potential proteasome substrates) (proteasome; HEK293T PSMA4-miniTurbo, 20 μM MG132 4 hours, log 2 fold change>1 and Q value<0.05) [proteins] | enrichment of proteasome activators and ubiquitin in streptavidin pull downs, MG132-treated versus control cells (proteasome; HEK293T cells expressing PSMA4-miniTurbo, 20 μM MG132 for 4 hours, biotin 2 hours) | reduction of proteasome activity following addition of tetracycline [1] |
| --- | --- | --- | --- | --- |
| CC(C)C[C@@H](C=O)NC(=O)[C@H](CC(C)C)NC(=O)[C@H](CC(C)C)NC(=O)OCc1ccccc1 [MG132] (Cbz-Leu-Leu-Leu-aldehyde) | clear impact | 296 | prominent enrichment of proteasome activators and ubiquitin |  |
| CN(C)[C@@H]1C(O)=C(C(N)=O)C(=O)[C@@]2(O)C(O)=C3C(=O)c4c(O)cccc4[C@@](C)(O)[C@H]3C[C@@H]12 [tetracycline] |  |  |  | 15-20% |
